Experimental data reported in patent US20070248599A1 (priority 2006, published 2007).

Columns and labels:
N2a-APPsw cells [1] = assay: Cellular Aβ production in N2a-APPsw cells (Aβ40 ELISA of conditioned medium); type: cell-based, mouse; details: for Aβ production: recombinant ApoE forms at 10 μg/ml, N2a-APPsw cells (FIG. 5B)
Procedure: Quantification of β-Amyloid40, Neuro-2a cell stably overexpressing APPsw695 was used for detecting of β-Amyloid40. N2a-APPsw cells were grown in Dulbecco's Modified Eagle's medium (DMED) containing 10% fetal bovine serum, 100 U/mL penicillin, and 100 μg/mL streptomycin (GibcoBUR) with 80 μg/mL G418. Cells were cultured in 24-well plates one day before treatment. Transient transfections were done using FeGENE6 (Roche), fresh Optimum medium (Invitrogen) were supplied 5 h after transfection. Same concentration purified Apolipoprotein was added into the fresh medium. Conditioned medium was collected 24 h later. Aβ40 was quantified with sandwich ELISA by using Aβ40 ELISA Kit (Biosource). At least three times assays were done for each condition.
Cellular Aβ40 production. Neuroblastoma N2a-APPsw cells (from Dr. Riqiang Yan, Lerner Research Institute, Cleveland, Ohio) were cultured in 24-well plates in Dulbecco's Modified Eagle's medium (DMED) containing 10% fetal bovine serum, 100 U/mL penicillin, and 100 μg/mL streptomycin (GibcoBUR) with 80 μg/mL G418 one day before use. Transient transfections were done using FeGENE6 (Roche), fresh Optimum medium (Invitrogen) were supplied 5 h after transfection. Apolipoproteins were added in the fresh medium at 10 μg/mL. Conditioned medium was collected 24 h later. Aβ40 was determined in tripcates using Aβ40 ELISA Kit (Biosource). For studying the effect of PTB domain on Aβ production, N2a-APPsw cells were transfected with (0.4 μg/per well for 24 well plate) of PTB-containing vector before subjected to the above procedure.

N2a-APPsw cells [2] = assay: as above; type: cell-based, mouse; details: for Aβ production: each at 5 μg/mL, 24 h, N2a-APPsw cells (FIG. 5B legend)
[3] = test system: N2a-APPsw cells transfected with ApoER2 and β-secretase; assay: Internalization of cell surface proteins (biotinylation, Western blot); type: cell-based, mouse
Procedure: Internalization of cell surface proteins. N2a-APPsw cells were transiently tranfected with ApoER2 and β-secretase with Lipfectamine 2000. […] Cells were then placed on ice, rinsed in cold PBS and incubated in PBS containing 1.5 mg/mL sulfo-NHS-LC-biotin (Pierce) for 20 min at 4° C. Cells were rinsed twice in PBS and lysed in 800 μl PBS containing 0.1% SDS, 1% NP40 and a complete protease inhibitor cocktail. Total protein concentration was determined by immunoblotting from an aliquot of 50 μl cell lysate. Biotinylated proteins were recovered with NeutrAvidin agarose (50 μl; Pierce), rinsed three times, eluted in 20 μl SDS-sample buffer at boiling temperature and used for Western-blot. Quantity of bands was determined by optical scanning instruments specified above. For the determination of internalized proteins, cells were prepared as above, rinsed in PBS and then incubated with cold 1.5 mg/mL cleavable biotin reagent in PBS (EZ-Link Sulfo-NHS-SS biotin, Pierce) for 20 min at 4° C. […] Cells were then lysed in 800 μl PBS containing 0.1% SDS, 1% NP40 and a complete protease inhibitor cocktail. After centrifugation, biotinylated proteins were retrieved by incubation with NeutrAvidin agarose (50 μl; Pierce). Isolated proteins were rinsed in buffer three times and boiled in 20 μl sample buffer for Western blots.

[4] = test system: N2a-APPsw cells transfected with ApoER2 and β-secretase; assay: as above; type: cell-based, mouse; details: Western blot of conditioned medium (FIG. 6D)
[5] = biological target: T1, human LRP (LDL receptor related protein) (human, UniProt Q07954 20-4544); assay: co-IP from HEK293 lysate, Western blot
T1 construct: whole, on cells; Expressed in HEK293 cells in place of ApoER2 and assayed in lysate
Procedure: KPI is a Kunitz protease inhibitor domain. In ApoER2, the alternative spliced 59-residue insertion is shown in blue. […] Experimental conditions same as in FIG. 7A.
Co-immunoprecipitation and Western Blot Assays. […] 36 h after transfection, cells were harvested and lysed on ice in lysis buffer (PBS, pH 7.4 with 1% NP-40 and 1% Saponin with protease inhibitors cocktail (Roche)). Cell lysates were cleared by centrifugation and immunoprecipitated with indicated antibody for 4 h at 4° C. Immune complexes were isolated using protein G-agarose beads (Sigma) and subjected to SDS-PAGE and Western blotting using specific antibodies.

[6] = 10 μg/mL, internalization 15 min at 37° C. (FIG. 6B)

T1 sequence (Q07954 20-4544): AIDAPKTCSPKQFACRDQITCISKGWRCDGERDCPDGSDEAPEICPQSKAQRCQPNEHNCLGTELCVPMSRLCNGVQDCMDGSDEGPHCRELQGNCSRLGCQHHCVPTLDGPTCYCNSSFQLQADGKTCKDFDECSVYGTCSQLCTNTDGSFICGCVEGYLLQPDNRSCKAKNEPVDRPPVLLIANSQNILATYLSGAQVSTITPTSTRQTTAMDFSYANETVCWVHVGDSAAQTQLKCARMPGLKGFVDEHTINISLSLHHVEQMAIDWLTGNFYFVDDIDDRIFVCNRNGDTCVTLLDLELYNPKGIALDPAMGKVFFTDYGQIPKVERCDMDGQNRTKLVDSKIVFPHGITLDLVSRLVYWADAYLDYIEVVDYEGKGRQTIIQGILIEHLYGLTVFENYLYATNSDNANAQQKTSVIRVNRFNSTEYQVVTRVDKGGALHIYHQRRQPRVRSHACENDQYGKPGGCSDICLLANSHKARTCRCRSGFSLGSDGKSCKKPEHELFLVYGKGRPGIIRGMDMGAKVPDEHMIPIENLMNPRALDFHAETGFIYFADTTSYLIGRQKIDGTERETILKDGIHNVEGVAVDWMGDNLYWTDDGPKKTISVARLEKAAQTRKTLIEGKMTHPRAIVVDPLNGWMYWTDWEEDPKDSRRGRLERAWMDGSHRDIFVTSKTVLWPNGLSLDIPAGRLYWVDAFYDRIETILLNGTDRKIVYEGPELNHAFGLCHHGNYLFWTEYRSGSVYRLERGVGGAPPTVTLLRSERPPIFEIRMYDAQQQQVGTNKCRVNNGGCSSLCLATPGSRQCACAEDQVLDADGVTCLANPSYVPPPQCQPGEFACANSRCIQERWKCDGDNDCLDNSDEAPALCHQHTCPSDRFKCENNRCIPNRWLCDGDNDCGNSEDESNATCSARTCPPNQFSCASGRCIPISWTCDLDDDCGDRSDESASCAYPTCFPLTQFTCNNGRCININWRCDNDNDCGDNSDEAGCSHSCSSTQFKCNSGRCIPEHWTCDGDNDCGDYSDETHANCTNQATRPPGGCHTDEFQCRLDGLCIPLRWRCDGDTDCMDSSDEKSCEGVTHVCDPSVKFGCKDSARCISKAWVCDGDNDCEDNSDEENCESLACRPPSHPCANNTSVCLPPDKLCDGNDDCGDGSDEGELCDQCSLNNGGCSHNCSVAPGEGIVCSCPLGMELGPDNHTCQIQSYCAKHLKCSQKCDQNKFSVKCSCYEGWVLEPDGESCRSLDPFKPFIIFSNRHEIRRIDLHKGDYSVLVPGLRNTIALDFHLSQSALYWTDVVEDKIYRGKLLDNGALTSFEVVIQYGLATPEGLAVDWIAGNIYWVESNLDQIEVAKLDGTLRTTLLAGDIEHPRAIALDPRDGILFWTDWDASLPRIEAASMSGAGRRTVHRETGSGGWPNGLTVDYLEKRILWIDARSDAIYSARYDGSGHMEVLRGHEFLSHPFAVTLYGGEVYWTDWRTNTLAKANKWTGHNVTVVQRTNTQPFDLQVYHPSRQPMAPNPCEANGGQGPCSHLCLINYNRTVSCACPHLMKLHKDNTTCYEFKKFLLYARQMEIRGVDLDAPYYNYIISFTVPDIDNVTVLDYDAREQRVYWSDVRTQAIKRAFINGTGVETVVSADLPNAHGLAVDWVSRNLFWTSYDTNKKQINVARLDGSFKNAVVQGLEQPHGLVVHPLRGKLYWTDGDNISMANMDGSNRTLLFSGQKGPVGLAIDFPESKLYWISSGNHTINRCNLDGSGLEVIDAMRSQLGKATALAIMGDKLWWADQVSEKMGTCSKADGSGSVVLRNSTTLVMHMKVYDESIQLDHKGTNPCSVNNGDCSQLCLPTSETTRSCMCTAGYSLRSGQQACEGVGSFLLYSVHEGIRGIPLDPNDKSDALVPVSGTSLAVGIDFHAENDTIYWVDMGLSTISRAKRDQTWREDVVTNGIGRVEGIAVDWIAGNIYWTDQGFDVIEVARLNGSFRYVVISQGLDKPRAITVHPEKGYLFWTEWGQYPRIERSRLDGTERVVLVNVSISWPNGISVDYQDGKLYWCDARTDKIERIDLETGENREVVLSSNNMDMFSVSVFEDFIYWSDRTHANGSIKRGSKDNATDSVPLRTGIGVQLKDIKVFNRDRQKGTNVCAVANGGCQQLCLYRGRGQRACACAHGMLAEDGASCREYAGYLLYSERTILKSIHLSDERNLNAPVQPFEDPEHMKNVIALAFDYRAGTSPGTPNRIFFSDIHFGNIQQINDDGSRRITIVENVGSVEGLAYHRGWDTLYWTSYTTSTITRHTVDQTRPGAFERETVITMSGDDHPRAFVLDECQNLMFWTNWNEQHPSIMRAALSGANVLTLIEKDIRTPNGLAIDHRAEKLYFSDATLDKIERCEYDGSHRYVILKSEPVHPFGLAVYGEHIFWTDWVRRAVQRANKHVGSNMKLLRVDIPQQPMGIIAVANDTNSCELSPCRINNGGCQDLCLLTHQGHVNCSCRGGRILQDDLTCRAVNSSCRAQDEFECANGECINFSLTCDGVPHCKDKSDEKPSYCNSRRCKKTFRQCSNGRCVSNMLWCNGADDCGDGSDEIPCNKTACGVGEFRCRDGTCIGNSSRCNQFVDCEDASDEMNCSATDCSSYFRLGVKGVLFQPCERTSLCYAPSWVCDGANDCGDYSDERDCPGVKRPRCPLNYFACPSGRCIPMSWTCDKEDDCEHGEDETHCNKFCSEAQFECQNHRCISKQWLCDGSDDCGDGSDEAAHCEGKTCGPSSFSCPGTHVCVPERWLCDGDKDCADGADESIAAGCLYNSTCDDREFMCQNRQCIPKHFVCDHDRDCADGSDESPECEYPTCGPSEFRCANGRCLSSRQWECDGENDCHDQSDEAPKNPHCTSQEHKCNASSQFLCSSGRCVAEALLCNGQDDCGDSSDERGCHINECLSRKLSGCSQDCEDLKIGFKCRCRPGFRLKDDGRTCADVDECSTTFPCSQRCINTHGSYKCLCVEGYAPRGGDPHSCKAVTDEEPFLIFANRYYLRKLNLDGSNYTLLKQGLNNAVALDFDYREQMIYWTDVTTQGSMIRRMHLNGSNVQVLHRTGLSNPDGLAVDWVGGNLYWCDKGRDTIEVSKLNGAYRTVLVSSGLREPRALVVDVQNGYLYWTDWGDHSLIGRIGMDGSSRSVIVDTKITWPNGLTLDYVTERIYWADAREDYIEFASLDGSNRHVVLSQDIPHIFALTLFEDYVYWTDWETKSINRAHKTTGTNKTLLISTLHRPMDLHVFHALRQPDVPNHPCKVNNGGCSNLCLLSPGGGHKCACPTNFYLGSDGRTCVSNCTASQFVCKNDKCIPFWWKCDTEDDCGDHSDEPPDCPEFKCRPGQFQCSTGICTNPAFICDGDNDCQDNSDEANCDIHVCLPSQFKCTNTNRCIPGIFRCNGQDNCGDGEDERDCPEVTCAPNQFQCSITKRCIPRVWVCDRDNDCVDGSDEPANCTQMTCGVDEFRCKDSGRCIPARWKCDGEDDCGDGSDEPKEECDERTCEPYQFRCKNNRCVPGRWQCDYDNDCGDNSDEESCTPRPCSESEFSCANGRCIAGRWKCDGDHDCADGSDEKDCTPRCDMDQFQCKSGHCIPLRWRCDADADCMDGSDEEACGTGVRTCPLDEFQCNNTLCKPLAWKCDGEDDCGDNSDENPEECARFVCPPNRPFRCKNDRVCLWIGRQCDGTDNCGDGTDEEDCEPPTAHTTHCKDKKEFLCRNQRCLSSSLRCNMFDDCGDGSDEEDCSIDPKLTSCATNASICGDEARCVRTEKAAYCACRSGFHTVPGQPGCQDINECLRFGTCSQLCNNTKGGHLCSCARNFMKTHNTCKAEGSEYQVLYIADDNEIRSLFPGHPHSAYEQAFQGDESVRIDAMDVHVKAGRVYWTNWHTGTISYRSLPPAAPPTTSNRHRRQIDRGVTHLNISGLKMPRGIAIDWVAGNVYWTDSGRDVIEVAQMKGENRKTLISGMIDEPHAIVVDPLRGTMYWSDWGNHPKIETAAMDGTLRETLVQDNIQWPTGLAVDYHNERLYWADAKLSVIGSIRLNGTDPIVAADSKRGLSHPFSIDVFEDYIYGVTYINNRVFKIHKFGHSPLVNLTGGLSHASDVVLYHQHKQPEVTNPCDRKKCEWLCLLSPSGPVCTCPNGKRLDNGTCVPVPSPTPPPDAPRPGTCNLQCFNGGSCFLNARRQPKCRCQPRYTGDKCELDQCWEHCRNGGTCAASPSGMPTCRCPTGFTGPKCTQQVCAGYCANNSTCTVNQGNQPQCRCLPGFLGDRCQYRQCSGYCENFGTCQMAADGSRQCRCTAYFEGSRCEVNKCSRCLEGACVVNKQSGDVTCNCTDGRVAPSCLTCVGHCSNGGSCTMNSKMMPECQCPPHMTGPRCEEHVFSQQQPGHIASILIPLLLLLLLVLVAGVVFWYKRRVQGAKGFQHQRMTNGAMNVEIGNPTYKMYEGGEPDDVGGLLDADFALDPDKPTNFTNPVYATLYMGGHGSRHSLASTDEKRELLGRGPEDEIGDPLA

Molecule: ApoE2: recombinant ApoE isoform with cysteine at residue 158, from Alpha Diagnostic
- Aβ production (N2a-APPsw cells [1]): increased Aβ production
- Aβ production (N2a-APPsw cells [2]): increased Aβ production

Molecule: ApoE: purified human apolipoprotein E, purchased from Biodesign / Alpha Diagnostic
- total amounts of ApoER2, APP and β-secretase in the cell lysates ([3]; 10 μg/mL, 2 h): remained about the same
- decrease of remaining cell-surface β-secretase ([3]; 10 μg/mL, 2 h, compared to controls (FIG. 6A)): ~7%
- increase of intracellular APP [3, 6]: about 2.5 fold
- increase of intracellular ApoER2 [3, 6]: small increases
- increase of intracellular β-secretase [3, 6]: small increases
- intracellular APP C-terminal fragment C99 ([3]; Western blot, over the control (FIG. 6C)): significantly increased
- Aβ production in cells transfected with ApoER2 versus without (N2a-APPsw cells [1]; N2a-APPsw cells (FIG. 5D)): produced more Aβ
- Aβ40 increase in cells transfected with ApoER2 versus blank vectors (N2a-APPsw cells [2]; 5 μg/mL, N2a APPsw cells, p<0.05 (FIG. 4)): increase of Aβ40 at a greater extent
- Aβ40 levels in medium (N2a-APPsw cells [2]; 5 μg/mL, blank vector transfected N2a APPsw cells vs control (FIG. 4)): increased over that in the control cells
- Aβ production (N2a-APPsw cells [2]): increased Aβ production
- APP ectodomain generated by ∝-secretase, s∝-APP [4]: reduction

Molecule: ApoE3: recombinant ApoE isoform, the reference sequence, from Alpha Diagnostic
- Aβ production (N2a-APPsw cells [1]): increased Aβ production
- Aβ production (N2a-APPsw cells [2]): increased Aβ production

B1: human X11α (other)
chain: MNHLEGSAEVEVTDEAAGGEVNESVEADLEHPEVEEEQQQPPQQQHYVGRHQRGRALEDLRAQLGQEEEERGECLARSASTESGFHNHTDTAEGDVIAAARDGYDAERAQDPEDESAYAVQYRPEAEEYTEQAEAEHAEATHRRALPNHLHFHSLEHEEAMNAAYSGYVYTHRLFHRGEDEPYSEPYADYGGLQEHVYEEIGDAPELDARDGLRLYEQERDEAAAYRQEALGARLHHYDERSDGESDSPEKEAEFAPYPRMDSYEQEEDIDQIVAEVKQSMSSQSLDKAAEDMPEAEQDLERPPTPAGGRPDSPGLQAPAGQQRAVGPAGGGEAGQRYSKEKRDAISLAIKDIKEAIEEVKTRTIRSPYTPDEPKEPIWVMRQDISPTRDCDDQRPMDGDSPSPGSSSPLGAESSSTSLHPSDPVEASTNKESRKSLASFPTYVEVPGPCDPEDLIDGIIFAANYLGSTQLLSDKTPSKNVRMMQAQEAVSRIKMAQKLAKSRKKAPEGESQPMTEVDLFISTQRIKVLNADTQETMMDHPLRTISYIADIGNIVVLMARRRMPRSNSQENVEASHPSQDGKRQYKMICHVFESEDAQLIAQSIGQAFSVAYQEFLRANGINPEDLSQKEYSDLLNTQDMYNDDLIHFSKSENCKDVFIEKQKGEILGVVIVESGWGSILPTVIIANMMHGGPAEKSGKLNIGDQIMSINGTSLVGLPLSTCQSIIKGLKNQSRVKLNIVRCPPVTTVLIRRPDLRYQLGFSVQNGIICSLMRGGIAERGGVRVGHRIIEINGQSVVATPHEKIVHILSNAVGEIHMKTMPAAMYRLLTAQEQPVYI
notes: Adaptor protein expressed from a cDNA vector in HEK293 cells and assayed in lysate; the vector came from an outside laboratory; also called X11α/β
- binding result [5]: no binding

B2: PTB domain of X11α (residue 457-751) expressed from pcDNA6 (other)
chain: DGIIFAANYLGSTQLLSDKTPSKNVRMMQAQEAVSRIKMAQKLAKSRKKAPEGESQPMTEVDLFISTQRIKVLNADTQETMMDHPLRTISYIADIGNIVVLMARRRMPRSNSQENVEASHPSQDGKRQYKMICHVFESEDAQLIAQSIGQAFSVAYQEFLRANGINPEDLSQKEYSDLLNTQDMYNDDLIHFSKSENCKDVFIEKQKGEILGVVIVESGWGSILPTVIIANMMHGGPAEKSGKLNIGDQIMSINGTSLVGLPLSTCQSIIKGLKNQSRVKLNIVRCPPVTTVLIR
notes: Expressed in cells from pcDNA6; also called separately expressed PTB domain of X11α
- binding result [5]: no binding
